Assay results taken from a melting point compilation (Tetko et al.; mined from patent text by program, amines drawn as free bases though some values may be those of a salt).

| melting point [°C] | Structure (SMILES) |
| --- | --- |
| 183 to 185 | CC1Oc2ccc(OCc3nc4cc(F)ccc4s3)cc2C(=O)C1Cc1cccc(NS(=O)(=O)C(F)(F)F)c1 (centres undefined) |
| 74 to 75 | COc1c(C)cc(C)cc1CCC(=O)O |
| 33 to 37 | FC(F)(F)c1cccc(-c2cc(CCl)on2)c1 |
| 194 to 196 | O=C(NCC(F)(F)F)c1ccc(-c2ccc3nnn(Cc4ccc5ncccc5c4)c3n2)cc1F |
| 119 to 124 | COCCOc1cnn(-c2nc3ccccc3c(=O)[nH]2)c1 |
| 350 | Cn1cc(-c2cc3nccnc3[nH]2)c2cc(C(=O)O)ccc21 |
| 205 to 208 | CCCC1C(=O)N(S(C)(=O)=O)C2CCN(S(C)(=O)=O)C12 (centres undefined) |
| 91 to 93 | CC(C)(C)OC(=O)N1CCC(C(=O)c2ccccc2)CC1 |
| 194 to 196 | CC1(c2ccccc2)C(=O)Nc2ccccc2C1=O (centres undefined) |
| 76 | CC(C)c1ccc(C=O)c(=O)c(O)c1 |
| 117 to 118 | CCOC(=O)/C(=N\OC1CCCCCCC1)c1csc(N)n1 |
| 193 to 194 | FC(F)(F)c1cccc(Nc2nc3ccccc3o2)c1 |
| 104 to 106 | COC(=O)CN1CC(OC)=CC1=O |
| 158 to 159 | Cc1cc(-c2ccccc2)n2nc(S(C)(=O)=O)nc2n1 |
| 143 to 144 | COC(=O)c1ccccc1CC(=O)Nc1cccc(/C=C/c2nc(C3CCC3)cs2)c1 |
| 220 to 226 | NC1=NC(c2ccc(OC(F)F)cc2)(c2cccc(-c3cccnc3F)c2)C2=NCC3(CCC3)CN12 (centres undefined) |
| 124 | CCOC(=O)[C@](CC(=O)OC1CC(C)CCC1C(C)C)(NC(=O)OCc1ccccc1)C(N)=O (some centres undefined) |
| 224 to 226 | Cc1nc(NC(=O)c2cccnc2)sc1C(=O)NCc1ccccc1 |
| 58 to 59 | Cc1oc(-c2ccccc2)nc1COc1ccc(CCCCCBr)cc1 |

| melting point [°C] | Structure (SMILES) |
| --- | --- |
| 150 to 160 | CCC12CCC3c4ccc(OC)cc4C(C)CC3C1CCC2O (centres undefined) |
| 153 to 157 | N#Cc1cnc(N)nc1-c1ccc(Cl)cc1C(=O)c1ccccc1F |
| 166 to 168 | COc1ccccc1NC(=O)Nc1ccc(C2CCN(C(=O)Nc3ccc(OCCO)cc3Cl)CC2)cc1 |
| 264 to 266 | Cc1ccc2c(C3=C(c4cn(C)c5ccccc45)C(=O)NC3=O)cn(C)c2c1 |
| 235 to 240 | CC12CCCC1C1CCc3cc(C(=O)O)ccc3C1CC2 (centres undefined) |
| 144 to 146 | CC(=O)Nc1ccnn1-c1c(F)cc(C(F)(F)F)cc1Cl |
| 210 to 213 | CNC(=O)c1ccc(N2CCN(Cc3cc4c(c(OC(F)F)c3)OC(C)C(=O)N4)CC2)cc1 (centres undefined) |
| 196 to 200 | N=C(N)Nc1nc(CSCCNc2[nH]ccc2[N+](=O)[O-])cs1 |
| 166 to 168 | CCN1C(=O)C(C)(C)C(=O)N(C)c2cc(CN(CCn3ccc4oc(C)cc4c3=O)c3cccc4ncccc34)ccc21 |
| 196 to 200 | OC1CSC(Oc2ccc(-c3cncnc3)cc2)C(O)C1O (centres undefined) |
| 117 to 118 | CC1(C)CC(=O)c2cc(Br)ccc21 |
| 237 to 239 | O=S(=O)(c1ccc(O)c(Br)c1)N1c2ccc(Br)cc2-c2ccccc2C1c1ccccc1 (centres undefined) |
| 70 | CC(=O)OC1CSC(Oc2cccnc2-c2cccnc2)C(OC(C)=O)C1OC(C)=O (centres undefined) |
| 57 to 60 | CCCCCC(Oc1ccc(C2=CCCCCCC2)cc1)C(=O)O (centres undefined) |
| 126 to 127 | O=C(O)CNc1ccccc1F |
| 192 to 194 | COc1c(C2CCN(CCCCNC(=O)c3ccc(-c4ccc(Cl)nn4)cc3)CC2)ccc2c1CCCC2 |
| 208 to 210 | O=C(O)Cc1cc(=O)n(Cc2ccc([N+](=O)[O-])cc2)c2ccccc12 |
| 198 | O=C1CCC(c2ccccc2)(c2ccccc2)C2CN(C(Cc3ccccc3)=NCc3ccc(Cl)cc3)CC12 (centres undefined) |

| Structure (SMILES) | melting point [°C] |
| --- | --- |
| O=c1[nH]c2ccccc2n1C1CCN(C[C@@H]2CO[C@@H](c3ccc(F)cc3)C2)CC1 (relative stereo) | 154 to 155 |
| CNC(=O)ON=C1OCCOC1(C)C | 144 to 146 |
